Assay [1] concerns the target T1, JAK2 (Homo sapiens, UniProt O60674).
T1 construct: host or cells: baculovirus expression system
In words: Recombinant Human JAK2 Kinase Assay (TRF). The conditions noted are these: read-out: JAK2 Potency. Format: biochemical. The method in brief: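 Europium-labelled PY100 antibody reported tyrosine phosphorylation of a Neutravidin-captured biotinyl 15-mer peptide by JAK2 (baculovirus-expressed, 15 ng/ml). Conditions: 20 mM HEPES pH 7.2, 0.2 μM ATP, 1 mM MnCl2, 0.1% BSA, DMSO 2.5% final, 20 min at room temperature.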

For assay [2], the target named is T2, ALK (Homo sapiens, UniProt Q9UM73).
T2 construct: host or cells: baculovirus expression system
T2 sequence (Q9UM73 19-1620): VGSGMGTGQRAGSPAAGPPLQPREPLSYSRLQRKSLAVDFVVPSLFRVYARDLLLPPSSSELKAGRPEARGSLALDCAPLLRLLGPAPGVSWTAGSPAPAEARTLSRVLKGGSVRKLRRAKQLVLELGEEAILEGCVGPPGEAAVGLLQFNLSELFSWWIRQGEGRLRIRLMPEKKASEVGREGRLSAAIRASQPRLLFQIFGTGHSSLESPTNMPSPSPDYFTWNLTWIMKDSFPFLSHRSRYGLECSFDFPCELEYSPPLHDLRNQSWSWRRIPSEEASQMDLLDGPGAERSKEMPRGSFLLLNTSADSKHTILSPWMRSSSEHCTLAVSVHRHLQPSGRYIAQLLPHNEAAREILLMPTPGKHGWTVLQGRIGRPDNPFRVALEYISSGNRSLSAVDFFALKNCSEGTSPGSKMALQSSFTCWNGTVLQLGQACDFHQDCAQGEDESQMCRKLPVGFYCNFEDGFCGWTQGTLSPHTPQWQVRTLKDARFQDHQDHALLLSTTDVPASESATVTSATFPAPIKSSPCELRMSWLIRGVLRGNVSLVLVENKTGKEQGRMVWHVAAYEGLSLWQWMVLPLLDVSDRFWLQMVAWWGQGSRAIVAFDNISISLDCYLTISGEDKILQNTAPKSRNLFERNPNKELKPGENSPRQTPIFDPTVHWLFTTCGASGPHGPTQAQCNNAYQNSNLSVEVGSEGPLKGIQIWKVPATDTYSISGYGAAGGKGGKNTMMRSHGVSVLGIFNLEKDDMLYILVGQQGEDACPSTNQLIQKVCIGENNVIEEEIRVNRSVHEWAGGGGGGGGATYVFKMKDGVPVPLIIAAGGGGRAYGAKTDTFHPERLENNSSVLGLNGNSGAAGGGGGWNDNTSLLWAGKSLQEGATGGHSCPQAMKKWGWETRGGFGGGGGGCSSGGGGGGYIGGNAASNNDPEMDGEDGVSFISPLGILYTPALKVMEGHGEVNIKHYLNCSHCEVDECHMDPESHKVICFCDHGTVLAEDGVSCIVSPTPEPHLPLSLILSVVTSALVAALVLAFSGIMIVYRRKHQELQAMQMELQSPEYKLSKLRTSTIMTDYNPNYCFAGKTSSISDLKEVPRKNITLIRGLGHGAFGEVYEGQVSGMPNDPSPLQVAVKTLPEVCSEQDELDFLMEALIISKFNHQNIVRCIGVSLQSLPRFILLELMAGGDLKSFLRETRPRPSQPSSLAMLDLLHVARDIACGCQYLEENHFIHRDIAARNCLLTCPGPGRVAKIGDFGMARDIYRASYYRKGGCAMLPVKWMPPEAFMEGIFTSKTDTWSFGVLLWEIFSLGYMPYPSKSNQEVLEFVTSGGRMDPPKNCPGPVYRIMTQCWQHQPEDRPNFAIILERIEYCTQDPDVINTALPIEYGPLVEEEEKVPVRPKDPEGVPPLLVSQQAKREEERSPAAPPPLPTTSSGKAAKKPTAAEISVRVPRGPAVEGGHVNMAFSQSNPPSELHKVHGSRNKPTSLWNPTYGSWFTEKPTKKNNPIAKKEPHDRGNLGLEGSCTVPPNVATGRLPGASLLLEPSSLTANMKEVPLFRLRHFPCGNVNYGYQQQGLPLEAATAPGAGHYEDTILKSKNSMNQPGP
Kind of assay: ALK Kinase Assay (ELISA/TRF, PLC-γ substrate). The class given is biochemical. To be noted: read-out: ALK Potency. In outline: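 First, plates are coated with substrate (phospholipase C-γ, 10 μg/mL, TBS). Next, 30 ng/ml ALK initiates phosphorylation for 15 min at 37° C. Then Eu-N1 PT66 antibody is added for detection, and a nonlinear dose-response fit of percent inhibition yields IC50.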

[3] abbreviates: JAK2 kinase inhibition, 0.2 μM ATP.
The mark [4] stands for this setting: ALK kinase inhibition, 1 μM ATP.

Molecules are shown by their SMILES. pIC50: −log10 of the molar value. Where two headings read alike, the source gives them in different places.

T1 sequence (O60674 whole entry): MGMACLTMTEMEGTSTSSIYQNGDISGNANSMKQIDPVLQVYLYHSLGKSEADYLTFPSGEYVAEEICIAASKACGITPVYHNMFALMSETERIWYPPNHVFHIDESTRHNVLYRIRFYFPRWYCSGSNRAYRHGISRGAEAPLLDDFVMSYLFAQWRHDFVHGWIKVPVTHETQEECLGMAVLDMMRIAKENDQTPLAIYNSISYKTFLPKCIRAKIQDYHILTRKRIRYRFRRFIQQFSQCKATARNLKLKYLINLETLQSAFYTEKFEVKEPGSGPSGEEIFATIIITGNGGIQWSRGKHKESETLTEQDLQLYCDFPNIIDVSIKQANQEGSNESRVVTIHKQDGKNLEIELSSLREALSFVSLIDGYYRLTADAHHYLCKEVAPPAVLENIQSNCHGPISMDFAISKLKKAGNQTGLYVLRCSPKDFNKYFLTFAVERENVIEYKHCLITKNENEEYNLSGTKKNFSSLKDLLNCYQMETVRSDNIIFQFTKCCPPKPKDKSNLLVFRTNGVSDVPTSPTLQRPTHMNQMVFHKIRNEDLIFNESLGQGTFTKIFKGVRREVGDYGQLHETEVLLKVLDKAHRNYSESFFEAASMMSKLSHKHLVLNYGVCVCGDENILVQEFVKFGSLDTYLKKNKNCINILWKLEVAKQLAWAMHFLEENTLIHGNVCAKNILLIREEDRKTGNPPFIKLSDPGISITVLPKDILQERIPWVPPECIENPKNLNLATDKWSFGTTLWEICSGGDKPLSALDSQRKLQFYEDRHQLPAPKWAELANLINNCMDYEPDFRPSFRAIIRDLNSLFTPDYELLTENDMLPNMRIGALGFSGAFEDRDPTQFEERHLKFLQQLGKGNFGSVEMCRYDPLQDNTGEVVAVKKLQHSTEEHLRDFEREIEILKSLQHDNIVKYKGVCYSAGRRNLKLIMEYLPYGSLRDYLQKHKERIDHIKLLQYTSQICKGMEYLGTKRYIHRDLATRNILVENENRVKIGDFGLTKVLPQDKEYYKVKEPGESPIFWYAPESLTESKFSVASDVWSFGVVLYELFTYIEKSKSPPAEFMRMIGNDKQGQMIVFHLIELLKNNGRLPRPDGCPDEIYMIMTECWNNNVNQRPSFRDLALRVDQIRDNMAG

On to `CC(=O)Nc1cc(Nc2ncc3ccc(-c4cccc(S(=O)(=O)NC(C)(C)C)c4)n3n2)ccc1C(C)(C)C` [Example 1387, N-{2-tert-Butyl-5-[7-(3-tert-butylsulfamoyl-phenyl)-pyrrolo[2,1-f][1,2,4]triazin-2-ylamino]-phenyl}-acetamide], for which the pIC50 in assay [1] (JAK2 Kinase Inhibition) is > 7.00; in assay [2] (ALK Kinase Inhibition), 6.00 to 7.00.

Turning to `CN1CCN(CC2CCCN(c3ccc(Nc4ncc5ccc(-c6ccc(S(C)(=O)=O)cc6)n5n4)cc3)C2)CC1` (stereo not shown) [Example 457, [7-(4-Methanesulfonyl-phenyl)-pyrrolo[2,1-f][1,2,4]triazin-2-yl]-{4-[3-(4-methyl-piperazin-1-ylmethyl)-piperidin-1-yl]-phenyl}-amine], the pIC50 in assay [1] (JAK2 Kinase Inhibition) is > 7.00; in assay [2] (ALK Kinase Inhibition) it was 6.00 to 7.00.

As to `COc1cc(N2CCN(C3CCOCC3)CC2)ccc1Nc1ncc2ccc(-c3ccccc3N(C)S(C)(=O)=O)n2n1` [Example 1471, N-[2-(2-{2-Methoxy-4-[4-(tetrahydro-pyran-4-yl)-piperazin-1-yl]-phenylamino}-pyrrolo[2,1-f][1,2,4]triazin-7-yl)-phenyl]-N-methyl-methanesulfonamide], the pIC50 in assay [1] (JAK2 Kinase Inhibition) is 6.00 to 7.00; in assay [2] (ALK Kinase Inhibition), > 7.00.

For `CS(=O)(=O)CCNCc1cccc(-c2ccc3cnc(Nc4ccc(N5CCOCC5)cc4)nn23)c1` [Example 1209, (7-{3-[(2-Methanesulfonyl-ethylamino)-methyl]-phenyl}-pyrrolo[2,1-f][1,2,4]triazin-2-yl)-(4-morpholin-4-yl-phenyl)-amine], the values for the pIC50 in assay [1] (setting [3]) and in assay [2] (setting [4]) were > 7.00 and 6.00 to 7.00, respectively.

Regarding `Cc1cc(Nc2ncc3ccc(-c4ccc(S(C)(=O)=O)cc4)n3n2)ccc1C1CCN(C)CC1` [Example 947, [7-(4-Methanesulfonyl-phenyl)-pyrrolo[2,1-f][1,2,4]triazin-2-yl]-[3-methyl-4-(1-methyl-piperidin-4-yl)-phenyl]-amine], the pIC50 in assay [1] (setting [3]) and in assay [2] (setting [4]) was > 7.00 throughout.

Take `O=S(=O)(CC1CC1)c1cccc(-c2ccc3cnc(Nc4ccc5nc[nH]c5c4)nn23)c1` [Example 1319, (3H-Benzimidazol-5-yl)-[7-(3-cyclopropylmethanesulfonyl-phenyl)-pyrrolo[2,1-f][1,2,4]triazin-2-yl]-amine]: the pIC50 in assay [1] (setting [3]) was > 7.00; in assay [2] (setting [4]) it was 5.00 to 6.00.

Consider `CS(=O)(=O)c1ccc(-c2ccc3cnc(Nc4ccc(N5CCN(CCO)CC5)cc4)nn23)cc1` [Example 88, 2-(4-{4-[7-(4-Methanesulfonyl-phenyl)-pyrrolo[2,1-f][1,2,4]triazin-2-ylamino]-phenyl}-piperazin-1-yl)-ethanol], for which the pIC50 is > 7.00 in assay [1] (JAK2 Kinase Inhibition) and 6.00 to 7.00 in assay [2] (ALK Kinase Inhibition).

On to `CC(=O)Nc1cccc(Nc2ncc3ccc(-c4ccc[nH]4)n3n2)c1` [Example 1292, N-{3-[7-(1H-Pyrrol-2-yl)-pyrrolo[2,1-f][1,2,4]triazin-2-ylamino]-phenyl}-acetamide], for which the pIC50 in assay [1] (setting [3]) was > 7.00; in assay [2] (setting [4]), 5.00 to 6.00.

As for `COc1cc(C2CCN(C)CC2C)ccc1Nc1ncc2ccc(-c3ccccc3OC)n2n1` (racemic) [Example 858, (±)-[4-(1,3-Dimethyl-piperidin-4-yl)-2-methoxy-phenyl]-[7-(2-methoxy-phenyl)-pyrrolo[2,1-f][1,2,4]triazin-2-yl]-amine], the pIC50 in assay [1] (setting [3]) was 6.00 to 7.00; in assay [2] (setting [4]) it was > 7.00.

Take `CC(C)S(=O)(=O)c1ccc(-c2ccc3cnc(Nc4ccc(N5CCOCC5)cc4)nn23)cc1` [Example 199, (4-Morpholin-4-yl-phenyl)-{7-[4-(propane-2-sulfonyl)-phenyl]-pyrrolo[2,1-f][1,2,4]triazin-2-yl}-amine]: the pIC50 is > 7.00 in assay [1] (JAK2 Kinase Inhibition) and 5.00 to 6.00 in assay [2] (ALK Kinase Inhibition).

In the case of `COCCN1CCc2ccc(Nc3ncc4ccc(-c5cccc(CCC#N)c5)n4n3)cc2CC1` [Example 1152, 3-(3-{2-[3-(2-Methoxy-ethyl)-2,3,4,5-tetrahydro-1H-benzo[d]azepin-7-ylamino]-pyrrolo[2,1-f][1,2,4]triazin-7-yl}-phenyl)-propionitrile], the pIC50 in assay [1] (setting [3]) and in assay [2] (setting [4]) was > 7.00 in each case.

With `CCNS(=O)(=O)c1cccc(-c2ccc3cnc(Nc4ccc(C5CCN(C)CC5)cc4)nn23)c1` [Example 907, N-Ethyl-3-{2-[4-(1-methyl-piperidin-4-yl)-phenylamino]-pyrrolo[2,1-f][1,2,4]triazin-7-yl}-benzenesulfonamide], the pIC50 in assay [1] (setting [3]) and in assay [2] (setting [4]) was > 7.00 each time.

On to `COc1cc(N2CCN(C)CC2)ccc1Nc1ncc2ccc(-c3ccccc3S(=O)(=O)N(C)C)n2n1` [Example 35, 2-{2-[2-Methoxy-4-(4-methyl-piperazin-1-yl)-phenylamino]-pyrrolo[2,1-f][1,2,4]triazin-7-yl}-N,N-dimethyl-benzenesulfonamide], for which the pIC50 in assay [1] (JAK2 Kinase Inhibition) is 5.00 to 6.00; in assay [2] (ALK Kinase Inhibition) it was 6.00 to 7.00.

On to `CN1CCN(c2ccc(Nc3ncc4c(-c5ccccc5)ccn4n3)cc2)CC1` [Example 41, [4-(4-Methyl-piperazin-1-yl)-phenyl]-(5-phenyl-pyrrolo[2,1-f][1,2,4]triazin-2-yl)-amine], for which the pIC50 in assay [1] (JAK2 Kinase Inhibition) is > 7.00; in assay [2] (ALK Kinase Inhibition), < 5.00.

Regarding `COc1ccc(OC)c(-c2ccc3cnc(Nc4ccc(N5CCN(C)CC5)cc4)nn23)c1` [Example 425, [7-(2,5-Dimethoxy-phenyl)-pyrrolo[2,1-f][1,2,4]triazin-2-yl]-[4-(4-methyl-piperazin-1-yl)-phenyl]-amine], the pIC50 in assay [1] (JAK2 Kinase Inhibition) was > 7.00; in assay [2] (ALK Kinase Inhibition), 6.00 to 7.00.

Take `CN(c1ccccc1-c1ccc2cnc(Nc3ccc4nc(CO)[nH]c4c3)nn12)S(C)(=O)=O` [Example 1071, N-{2-[2-(2-Hydroxymethyl-3H-benzoimidazol-5-ylamino)-pyrrolo[2,1-f][1,2,4]triazin-7-yl]-phenyl}-N-methyl-methanesulfonamide]: the pIC50 is > 7.00 in assay [1] (setting [3]) and 6.00 to 7.00 in assay [2] (setting [4]).

Turning to `COc1ccccc1-c1ccc2cnc(Nc3ccc(N4CCN(CC(C)(C)O)CC4)cc3)nn12` [Example 221, 1-(4-{4-[7-(2-Methoxy-phenyl)-pyrrolo[2,1-f][1,2,4]triazin-2-ylamino]-phenyl}-piperazin-1-yl)-2-methyl-propan-2-ol], the pIC50 in assay [1] (JAK2 Kinase Inhibition) and in assay [2] (ALK Kinase Inhibition) was > 7.00 in each case.

As for `COc1ccccc1-c1ccc2cnc(Nc3ccc(F)c(N4CCOCC4)c3)nn12` [Example 389, (4-Fluoro-3-morpholin-4-yl-phenyl)-[7-(2-methoxy-phenyl)-pyrrolo[2,1-f][1,2,4]triazin-2-yl]-amine], the pIC50 in assay [1] (JAK2 Kinase Inhibition) is > 7.00; in assay [2] (ALK Kinase Inhibition), 6.00 to 7.00.

For `CC(C)(C)NS(=O)(=O)c1cccc(-c2ccc3cnc(Nc4ccc(Cl)cc4)nn23)c1` [Example 1400, N-tert-Butyl-3-[2-(4-chloro-phenylamino)-pyrrolo[2,1-f][1,2,4]triazin-7-yl]-benzenesulfonamide], the values for the pIC50 in assay [1] (JAK2 Kinase Inhibition) and in assay [2] (ALK Kinase Inhibition) were > 7.00 and 5.00 to 6.00, respectively.

In the case of `COc1ccc(Nc2ncc3ccc(-c4ccccc4N(C)S(C)(=O)=O)n3n2)cc1N1CCOCC1` [Example 393, N-{2-[2-(4-Methoxy-3-morpholin-4-yl-phenylamino)-pyrrolo[2,1-f][1,2,4]triazin-7-yl]-phenyl}-N-methyl-methanesulfonamide], the pIC50 in assay [1] (JAK2 Kinase Inhibition) and in assay [2] (ALK Kinase Inhibition) was > 7.00 throughout.

Turning to `CCOC(=O)c1cccc(Nc2ncc3ccc(-c4cccc(S(=O)(=O)NC(C)(C)C)c4)n3n2)c1` [Example 890, 3-[7-(3-tert-Butylsulfamoyl-phenyl)-pyrrolo[2,1f][1,2,4]triazin-2-ylamino]-benzoic acid ethyl ester], the figures for the pIC50 in assay [1] (setting [3]) and in assay [2] (setting [4]) were > 7.00 and < 5.00, respectively.

Take `CS(=O)(=O)Nc1cccc(-c2ccc3cnc(Nc4ccc(N5CCC(N6CCOCC6)CC5)cc4)nn23)c1` [Example 636, N-(3-{2-[4-(4-Morpholin-4-yl-piperidin-1-yl)-phenylamino]-pyrrolo[2,1-f][1,2,4]triazin-7-yl}-phenyl)-methanesulfonamide]: the figures for the pIC50 in assay [1] (setting [3]) and in assay [2] (setting [4]) were > 7.00 and 6.00 to 7.00, respectively.

`CN(c1ccccc1-c1ccc2cnc(Nc3cnn(CCN4CCOCC4)c3)nn12)S(C)(=O)=O` [Example 1193, N-Methyl-N-(2-{2-[1-(2-morpholin-4-yl-ethyl)-1H-pyrazol-4-ylamino]-pyrrolo[2,1-f][1,2,4]triazin-7-yl}-phenyl)-methanesulfonamide]: the pIC50 in assay [1] (setting [3]) was > 7.00; in assay [2] (setting [4]), 5.00 to 6.00.

As for `COc1cccc(-c2ccc3cnc(Nc4ccc(N5CCOCC5)cc4)nn23)c1` [Example 422, [7-(3-Methoxy-phenyl)-pyrrolo[2,1-f][1,2,4]triazin-2-yl]-(4-morpholin-4-yl-phenyl)-amine], the figures for the pIC50 in assay [1] (JAK2 Kinase Inhibition) and in assay [2] (ALK Kinase Inhibition) were > 7.00 and < 5.00, respectively.

In the case of `COc1cc(N2CCC(N3CCOCC3)CC2)ccc1Nc1ncc2ccc(-c3ccccc3CS(C)(=O)=O)n2n1` [Example 549, [7-(2-Methanesulfonylmethyl-phenyl)-pyrrolo[2,1-f][1,2,4]triazin-2-yl]-[2-methoxy-4-(4-morpholin-4-yl-piperidin-1-yl)-phenyl]-amine], the figures for the pIC50 in assay [1] (setting [3]) and in assay [2] (setting [4]) were 5.00 to 6.00 and 6.00 to 7.00, respectively.

Turning to `CS(=O)(=O)c1cccc(-c2ccc3cnc(Nc4ccc(N5CCC(CO)CC5)cc4)nn23)c1` [Example 96, (1-{4-[7-(3-Methanesulfonyl-phenyl)-pyrrolo[2,1-f][1,2,4]triazin-2-ylamino]-phenyl}-piperidin-4-yl)-methanol], the pIC50 in assay [1] (JAK2 Kinase Inhibition) is > 7.00; in assay [2] (ALK Kinase Inhibition) it was 6.00 to 7.00.

These data come from US8471005B2 (Cephalon, Inc., priority 2008, dated 2013).
